Values of other authors as cited in US9459262B2, “Systems and methods for determining the percentage of glycated hemoglobin” (Relia Diagnostic Systems, Inc., priority 2009, dated 2016).
Read-outs that look alike come from different tables or passages of the source.

Row | Structure (SMILES) | Ionization constant (pKa) | Ionization constant (pKa) (second value)
1 | COc1ccc(B(O)O)cc1 [4-Methoxyphenylboronic acid] | 9.3 | –
2 | OB(O)c1ccc(Br)cc1 [4-Bromophenylboronic acid] | 8.6 | –
3 | OB(O)c1cc(Cl)cc(Cl)c1 [3,5-Dichlorophenylboronic acid] | 7.4 | –
4 | O=[N+]([O-])c1ccc(B(O)O)cc1 [4-Nitrophenylboronic acid] | 7.1 | –
5 | COC(=O)c1cc(B(O)O)cc([N+](=O)[O-])c1 [3-Methoxycarbonyl-5-nitrophenylboronic acid] | 6.9 | –
6 | OB(O)c1cccc2cccnc12 [8-Quinolinylboronic acid] | 4.0 | 10
7 | OB(O)c1ccc(F)cc1 [4-Fluorophenylboronic acid] | 9.1 | –
8 | Cc1ccccc1B(O)O [2-Methylphenylboronic acid] | 9.7 | –
9 | Cc1cc(C)cc(B(O)O)c1 [3,5-Dimethylphenylboronic acid] | 9.1 | –
10 | O=[N+]([O-])c1ccccc1B(O)O [2-Nitrophenylboronic acid] | 9.2 | –
11 | O=C(O)c1ccc(B(O)O)cc1 [4-Carboxyphenylboronic acid] | 8.4 | –
12 | OB(O)c1cccnc1 [3-Pyridylboronic acid] | 4.0 | 8.2
13 | CB(O)O [Methylboronic acid] | 10.4 | –
14 | Cc1ccc(B(O)O)cc1 [4-Methylphenylboronic acid] | 9.3 | –
15 | OB(O)c1cc(C(F)(F)F)cc(C(F)(F)F)c1 [3,5-Bis(trifluoromethyl)phenylboronic acid] | 7.2 | –
16 | COc1cccc(B(O)O)c1 [3-Methoxyphenylboronic acid] | 8.7 | –
17 | Cc1cccc(B(O)O)c1 [3-Methylphenylboronic acid] | 9.0 | –
